pEC50: −log10 of the molar value.
Target: Ras-related C3 botulinum toxin substrate 1 (Mus musculus, UniProt P63001)
Test: Rac1 wildtype GTP binding inhibitors, SAR follow-up, biochemical, pyrazoline analogs, multiplex, flow cytometry, Ki (AID 2055)
[1] = inactive by the depositor's call

SMILES | pEC50 [1] | pEC50
COc1ccc(C2CC(c3ccccc3)=NN2c2ccc(C(N)=O)cc2)cc1 (stereo not given) [UNM-0000305870] | 4.52 | 
COc1ccc(C2CC(c3ccccc3C(F)(F)F)=NN2c2ccc(S(N)(=O)=O)cc2)cc1 (stereo not given) [KUC103474N] | 4.52 | 
CN(C)c1ccc(C2CC(c3ccc(F)cc3)=NN2c2ccccc2)cc1 (stereo not given) [UNM-0000305866] | 4.52 | 
CN(C)c1ccc(C2CC(c3ccc(Br)cc3)=NN2c2ccccc2)cc1 (stereo not given) [UNM-0000305846] | 4.52 | 
COc1cccc(C2CC(c3ccccc3)=NN2c2ccc(S(N)(=O)=O)cc2)c1 (stereo not given) [4-[3-(3-methoxyphenyl)-5-phenyl-3,4-dihydropyrazol-2-yl]benzenesulfonamide] | 4.52 | 
O=[N+]([O-])c1ccc([N+]2=N[C-](c3ccccc3)CC2c2ccccc2)cc1 (stereo not given) | 4.52 | 
COc1ccc(C2CC(c3ccccc3)=NN2c2ccc(Cl)c(C(=O)O)c2)cc1OC (stereo not given) [2-chloro-5-[3-(3,4-dimethoxyphenyl)-5-phenyl-3,4-dihydropyrazol-2-yl]benzoic acid] | 4.52 | 
COc1ccc(C2CC(c3cccc(N(C)C)c3)=NN2c2ccc(S(N)(=O)=O)cc2)cc1 (stereo not given) | 4.52 | 
COc1ccc(C2CC(c3ccc(Br)cc3)=NN2c2ccccc2Cl)cc1 (stereo not given) [UNM-0000305832] | 4.52 | 
COc1ccc(C2CC(c3cccc(F)c3)=NN2c2ccc(S(N)(=O)=O)cc2)cc1 (stereo not given) [4-[5-(3-fluorophenyl)-3-(4-methoxyphenyl)-3,4-dihydropyrazol-2-yl]benzenesulfonamide] | 4.52 | 
COc1ccc(C2CC(c3ccncc3)=NN2c2ccc(S(N)(=O)=O)cc2)cc1 (stereo not given) | 4.52 | 
O=S(=O)(c1ccc(N2N=C(c3ccccc3)CC2c2ccccc2)cc1)C(F)F (stereo not given) | 4.52 | 
COc1ccc(C2CC(c3cccc(Br)c3)=NN2c2ccc(S(N)(=O)=O)cc2)cc1 (stereo not given) [UNM-0000306113] | 4.52 | 
COc1ccc(C2CC(c3ccccc3Cl)=NN2c2ccc(S(N)(=O)=O)cc2)cc1 (stereo not given) [4-[5-(2-chlorophenyl)-3-(4-methoxyphenyl)-3,4-dihydropyrazol-2-yl]benzenesulfonamide] | 4.52 | 
COc1ccc(C2=NN(c3ccccc3)C(c3ccc(Cl)cc3)C2)cc1 (stereo not given) [UNM-0000305833] | 4.52 | 
COc1ccc(C2CC(c3ccccc3)=NN2c2cccc(S(N)(=O)=O)c2)cc1 (stereo not given) [3-[3-(4-methoxyphenyl)-5-phenyl-3,4-dihydropyrazol-2-yl]benzenesulfonamide] | 4.52 | 
NS(=O)(=O)c1ccc(N2N=C(c3ccccc3)CC2c2cccc(Br)c2)cc1 (stereo not given) [UNM-0000306147] | 4.52 | 
O=[N+]([O-])c1cccc(C2C[C-](c3ccc(F)cc3)N=[N+]2c2ccccc2)c1 (stereo not given) [5-(4-fluorophenyl)-3-(3-nitrophenyl)-2-phenyl-3,4-dihydropyrazole] | 4.52 | 
FC(F)(F)c1ccccc1C1CC(c2ccc(Br)cc2)=NN1c1ccccc1 (stereo not given) [5-(4-bromophenyl)-2-phenyl-3-[2-(trifluoromethyl)phenyl]-3,4-dihydropyrazole] | 4.52 | 
COc1ccc(C2CC(c3cccc(Cl)c3)=NN2c2ccc(S(N)(=O)=O)cc2)cc1 (stereo not given) [UNM-0000306134] | 4.52 | 

SMILES | pEC50 [1] | pEC50
Cc1ccc(C2CC(c3ccccc3)=NN2c2ccc(S(N)(=O)=O)cc2)cc1 (stereo not given) | 4.52 | 
CCc1ccc(C2=NN(c3ccc(S(N)(=O)=O)cc3)C(c3ccc(F)cc3)C2)cc1 (stereo not given) | 4.52 | 
COc1ccc(C2CC(c3ccccc3)=NN2c2ccc(S(N)(=O)=O)cc2)cc1OC (stereo not given) [UNM-0000305823] | 4.88 | 
COc1ccc(C2=NN(c3ccc(S(N)(=O)=O)cc3)C(c3ccc(OC)cc3)C2)cc1 (stereo not given) [4-[3,5-bis(4-methoxyphenyl)-3,4-dihydropyrazol-2-yl]benzenesulfonamide] | 4.52 | 
COc1ccc(C2=NN(c3ccccc3)C(c3ccccc3C(F)(F)F)C2)cc1 (stereo not given) | 4.52 | 
O=C(O)c1ccc(N2N=C(c3ccccc3)CC2c2ccccc2)cc1 (stereo not given) | 4.26 | 
COc1ccc(C2C[C-](c3ccccc3)N=[N+]2c2ccc([N+](=O)[O-])cc2)cc1 (stereo not given) [3-(4-methoxyphenyl)-2-(4-nitrophenyl)-5-phenyl-3,4-dihydropyrazole] | 4.52 | 
COc1ccc(C2CC(c3ccc(F)cc3)=NN2c2ccccc2)cc1OC (stereo not given) [UNM-0000305864] | 4.52 | 
COc1ccc(C2CC(c3cccc(C(F)(F)F)c3)=NN2c2ccc(S(N)(=O)=O)cc2)cc1 (stereo not given) | 4.52 | 
COc1ccc(C2CC(c3ccc(N(C)C)cc3)=NN2c2ccc(S(N)(=O)=O)cc2)cc1 (stereo not given) [KUC103422N] | 4.52 | 
COc1ccc(C2CC(c3cccc(C)c3)=NN2c2ccc(S(N)(=O)=O)cc2)cc1 (stereo not given) [UNM-0000306153] | 4.52 | 
Clc1ccc(N2N=C(c3ccccc3)CC2c2ccccc2)cc1 (stereo not given) | 4.52 | 
COc1ccc(C2CC(c3ccc(C(F)(F)F)cc3)=NN2c2ccc(S(N)(=O)=O)cc2)cc1 (stereo not given) [4-[3-(4-methoxyphenyl)-5-[4-(trifluoromethyl)phenyl]-3,4-dihydropyrazol-2-yl]benzenesulfonamide] | 4.52 | 
COc1ccc(C2CC(c3ccccc3C)=NN2c2ccc(S(N)(=O)=O)cc2)cc1 (stereo not given) [UNM-0000306152] | 4.52 | 
COc1ccc(C2CC(c3ccccc3)=NN2c2ccc(Cl)c(C(=O)O)c2)cc1 (stereo not given) | 4.52 | 
O=S(=O)(O)c1ccc(N2N=C(c3ccccc3)CC2c2ccccc2)cc1 (stereo not given) [UNM-0000305834] |  | 4.52
COc1ccc(C2=NN(c3cccc(F)c3)C(c3ccc(Cl)cc3)C2)cc1 (stereo not given) [3-(4-chlorophenyl)-2-(3-fluorophenyl)-5-(4-methoxyphenyl)-3,4-dihydropyrazole] | 4.52 | 
COc1ccc(C2CC(C3CCCCC3)=NN2c2ccc(S(N)(=O)=O)cc2)cc1 (stereo not given) [4-[5-cyclohexyl-3-(4-methoxyphenyl)-3,4-dihydropyrazol-2-yl]benzenesulfonamide] | 4.52 | 
COc1ccc(C2CC(c3ccc(F)cc3)=NN2c2ccc(S(N)(=O)=O)cc2)cc1 (stereo not given) [4-[5-(4-fluorophenyl)-3-(4-methoxyphenyl)-3,4-dihydropyrazol-2-yl]benzenesulfonamide] | 4.52 | 
Cc1ccccc1[N+]1=N[C-](c2ccccc2)CC1c1cccc([N+](=O)[O-])c1 (stereo not given) [UNM-0000305854] | 4.52 | 

Reference: BindingDB's records for doi:10.7270/Q2959G0B (Nmmlsc, 2009)
